Measurements published in publication PMC9733911 (2022).

System: d(CTG)16 (DNA, repeat) GGGCTGCTGCTGCTGCTGCTGCTGCTGCTGCTGCTGCTGCTGCTGCTGCTGCCC
Test: ITC
Conditions: monomer alone

Compound | Kd [µM]
N=C(NCCCCNc1nc(N)nc(NCc2ccc(N)cc2)n1)c1ccc(C(=N)NCCCCNc2nc(N)nc(NCc3ccc(N)cc3)n2)cc1 | > 100
N=C(NCCCCNc1nc(N)nc(NCc2ccc(C=O)cc2)n1)c1ccc(C(=N)NCCCCNc2nc(N)nc(NCc3ccc(C=O)cc3)n2)cc1 | 81.6 ± 0.9
